Data: the NIST ThermoML archive (doi:10.1016/j.jct.2014.07.018)
Numbers after ± are expanded uncertainties.

Experiment: molar heat capacity at constant pressure
Conditions: 101.33 kPa, Vacuum adiabatic calorimetry

## CCC[n+]1ccn(C)c1.[Br-] [1-methyl-3-propylimidazolium bromide]
147.83 K, Crystal 2
  molar heat capacity at constant pressure: 133.2 ± 0.6 J/K/mol
148.11 K, Glass
  molar heat capacity at constant pressure: 140.8 ± 0.6 J/K/mol
149.71 K, Crystal 2
  molar heat capacity at constant pressure: 134.1 ± 0.6 J/K/mol
149.83 K, Crystal 2
  molar heat capacity at constant pressure: 134.2 ± 0.6 J/K/mol
150 K, Crystal 2
  molar heat capacity at constant pressure: 134.3 ± 0.6 J/K/mol
150 K, Glass
  molar heat capacity at constant pressure: 141.9 ± 0.6 J/K/mol
150.11 K, Glass
  molar heat capacity at constant pressure: 141.9 ± 0.6 J/K/mol
151.82 K, Crystal 2
  molar heat capacity at constant pressure: 135.2 ± 0.6 J/K/mol
151.83 K, Crystal 2
  molar heat capacity at constant pressure: 135.2 ± 0.6 J/K/mol
152.11 K, Glass
  molar heat capacity at constant pressure: 143.1 ± 0.6 J/K/mol
153.84 K, Crystal 2
  molar heat capacity at constant pressure: 136.2 ± 0.6 J/K/mol
153.93 K, Crystal 2
  molar heat capacity at constant pressure: 136.3 ± 0.6 J/K/mol
154.12 K, Glass
  molar heat capacity at constant pressure: 144.2 ± 0.6 J/K/mol
155.85 K, Crystal 2
  molar heat capacity at constant pressure: 137.2 ± 0.6 J/K/mol
156.04 K, Crystal 2
  molar heat capacity at constant pressure: 137.3 ± 0.6 J/K/mol
156.13 K, Glass
  molar heat capacity at constant pressure: 145.4 ± 0.6 J/K/mol
157.86 K, Crystal 2
  molar heat capacity at constant pressure: 138.3 ± 0.6 J/K/mol
158.13 K, Glass
  molar heat capacity at constant pressure: 146.5 ± 0.6 J/K/mol
158.16 K, Crystal 2
  molar heat capacity at constant pressure: 138.4 ± 0.6 J/K/mol
159.86 K, Crystal 2
  molar heat capacity at constant pressure: 139.3 ± 0.6 J/K/mol
160 K, Crystal 2
  molar heat capacity at constant pressure: 139.3 ± 0.6 J/K/mol
160 K, Glass
  molar heat capacity at constant pressure: 147.5 ± 0.7 J/K/mol
160.14 K, Glass
  molar heat capacity at constant pressure: 147.6 ± 0.6 J/K/mol
160.27 K, Crystal 2
  molar heat capacity at constant pressure: 139.5 ± 0.6 J/K/mol
161.87 K, Crystal 2
  molar heat capacity at constant pressure: 140.2 ± 0.6 J/K/mol
162.15 K, Glass
  molar heat capacity at constant pressure: 148.7 ± 0.6 J/K/mol
162.38 K, Crystal 2
  molar heat capacity at constant pressure: 140.6 ± 0.6 J/K/mol
163.88 K, Crystal 2
  molar heat capacity at constant pressure: 141.3 ± 0.6 J/K/mol
164.17 K, Glass
  molar heat capacity at constant pressure: 149.8 ± 0.7 J/K/mol
164.5 K, Crystal 2
  molar heat capacity at constant pressure: 141.6 ± 0.6 J/K/mol
165.89 K, Crystal 2
  molar heat capacity at constant pressure: 142.3 ± 0.6 J/K/mol
166.18 K, Glass
  molar heat capacity at constant pressure: 151 ± 0.7 J/K/mol
166.61 K, Crystal 2
  molar heat capacity at constant pressure: 142.6 ± 0.6 J/K/mol
167.9 K, Crystal 2
  molar heat capacity at constant pressure: 143.3 ± 0.6 J/K/mol
168.19 K, Glass
  molar heat capacity at constant pressure: 152.2 ± 0.7 J/K/mol
168.73 K, Crystal 2
  molar heat capacity at constant pressure: 143.7 ± 0.6 J/K/mol
169.91 K, Crystal 2
  molar heat capacity at constant pressure: 144.4 ± 0.6 J/K/mol
170 K, Crystal 2
  molar heat capacity at constant pressure: 144.4 ± 0.6 J/K/mol
170 K, Glass
  molar heat capacity at constant pressure: 153.2 ± 0.7 J/K/mol
170.21 K, Glass
  molar heat capacity at constant pressure: 153.3 ± 0.7 J/K/mol
170.84 K, Crystal 2
  molar heat capacity at constant pressure: 144.8 ± 0.6 J/K/mol
171.92 K, Crystal 2
  molar heat capacity at constant pressure: 145.4 ± 0.6 J/K/mol
172.22 K, Glass
  molar heat capacity at constant pressure: 154.5 ± 0.7 J/K/mol
172.95 K, Crystal 2
  molar heat capacity at constant pressure: 146.1 ± 0.6 J/K/mol
173.94 K, Crystal 2
  molar heat capacity at constant pressure: 146.6 ± 0.6 J/K/mol
174.24 K, Glass
  molar heat capacity at constant pressure: 155.6 ± 0.7 J/K/mol
175.06 K, Crystal 2
  molar heat capacity at constant pressure: 147.4 ± 0.6 J/K/mol
175.95 K, Crystal 2
  molar heat capacity at constant pressure: 147.9 ± 0.6 J/K/mol
176.26 K, Glass
  molar heat capacity at constant pressure: 156.8 ± 0.7 J/K/mol
177.17 K, Crystal 2
  molar heat capacity at constant pressure: 148.7 ± 0.6 J/K/mol
177.96 K, Crystal 2
  molar heat capacity at constant pressure: 149.1 ± 0.6 J/K/mol
178.28 K, Glass
  molar heat capacity at constant pressure: 158 ± 0.7 J/K/mol
179.28 K, Crystal 2
  molar heat capacity at constant pressure: 149.8 ± 0.7 J/K/mol
179.98 K, Crystal 2
  molar heat capacity at constant pressure: 150.2 ± 0.7 J/K/mol
180 K, Crystal 2
  molar heat capacity at constant pressure: 150.2 ± 0.7 J/K/mol
180 K, Glass
  molar heat capacity at constant pressure: 159.1 ± 0.7 J/K/mol
180.3 K, Glass
  molar heat capacity at constant pressure: 159.2 ± 0.7 J/K/mol
181.39 K, Crystal 2
  molar heat capacity at constant pressure: 150.9 ± 0.7 J/K/mol
182 K, Crystal 2
  molar heat capacity at constant pressure: 151.2 ± 0.7 J/K/mol
182.32 K, Glass
  molar heat capacity at constant pressure: 160.4 ± 0.7 J/K/mol
183.49 K, Crystal 2
  molar heat capacity at constant pressure: 152 ± 0.7 J/K/mol
184.02 K, Crystal 2
  molar heat capacity at constant pressure: 152.2 ± 0.7 J/K/mol
184.34 K, Glass
  molar heat capacity at constant pressure: 161.7 ± 0.7 J/K/mol
185.6 K, Crystal 2
  molar heat capacity at constant pressure: 153 ± 0.7 J/K/mol
186.04 K, Crystal 2
  molar heat capacity at constant pressure: 153.2 ± 0.7 J/K/mol
186.37 K, Glass
  molar heat capacity at constant pressure: 162.9 ± 0.7 J/K/mol
187.7 K, Crystal 2
  molar heat capacity at constant pressure: 154.1 ± 0.7 J/K/mol
188.06 K, Crystal 2
  molar heat capacity at constant pressure: 154.3 ± 0.7 J/K/mol
188.39 K, Glass
  molar heat capacity at constant pressure: 164.2 ± 0.7 J/K/mol
189.8 K, Crystal 2
  molar heat capacity at constant pressure: 155.2 ± 0.7 J/K/mol
190 K, Crystal 2
  molar heat capacity at constant pressure: 155.3 ± 0.7 J/K/mol
190 K, Glass
  molar heat capacity at constant pressure: 164.3 ± 0.7 J/K/mol
190.08 K, Crystal 2
  molar heat capacity at constant pressure: 155.3 ± 0.7 J/K/mol
190.42 K, Glass
  molar heat capacity at constant pressure: 165.5 ± 0.7 J/K/mol
191.9 K, Crystal 2
  molar heat capacity at constant pressure: 156.2 ± 0.7 J/K/mol
192.1 K, Crystal 2
  molar heat capacity at constant pressure: 156.3 ± 0.7 J/K/mol
192.45 K, Glass
  molar heat capacity at constant pressure: 166.9 ± 0.7 J/K/mol
194 K, Crystal 2
  molar heat capacity at constant pressure: 157.3 ± 0.7 J/K/mol
194.12 K, Crystal 2
  molar heat capacity at constant pressure: 157.4 ± 0.7 J/K/mol
194.48 K, Glass
  molar heat capacity at constant pressure: 168.3 ± 0.7 J/K/mol
196.1 K, Crystal 2
  molar heat capacity at constant pressure: 158.4 ± 0.7 J/K/mol
196.15 K, Crystal 2
  molar heat capacity at constant pressure: 158.4 ± 0.7 J/K/mol
196.52 K, Glass
  molar heat capacity at constant pressure: 169.7 ± 0.7 J/K/mol
198.17 K, Crystal 2
  molar heat capacity at constant pressure: 159.4 ± 0.7 J/K/mol
198.2 K, Crystal 2
  molar heat capacity at constant pressure: 159.4 ± 0.7 J/K/mol
198.56 K, Glass
  molar heat capacity at constant pressure: 171.3 ± 0.7 J/K/mol
200 K, Crystal 2
  molar heat capacity at constant pressure: 160.4 ± 0.7 J/K/mol
200 K, Glass
  molar heat capacity at constant pressure: 171.3 ± 0.7 J/K/mol
200.2 K, Crystal 2
  molar heat capacity at constant pressure: 160.5 ± 0.7 J/K/mol
200.29 K, Crystal 2
  molar heat capacity at constant pressure: 160.5 ± 0.7 J/K/mol
200.61 K, Glass
  molar heat capacity at constant pressure: 173 ± 0.7 J/K/mol
202.22 K, Crystal 2
  molar heat capacity at constant pressure: 161.6 ± 0.7 J/K/mol
202.39 K, Crystal 2
  molar heat capacity at constant pressure: 161.7 ± 0.7 J/K/mol
202.66 K, Glass
  molar heat capacity at constant pressure: 174.7 ± 0.7 J/K/mol
204.25 K, Crystal 2
  molar heat capacity at constant pressure: 162.6 ± 0.7 J/K/mol
204.48 K, Crystal 2
  molar heat capacity at constant pressure: 162.8 ± 0.7 J/K/mol
204.71 K, Glass
  molar heat capacity at constant pressure: 177.1 ± 0.8 J/K/mol
206.28 K, Crystal 2
  molar heat capacity at constant pressure: 163.8 ± 0.7 J/K/mol
206.57 K, Crystal 2
  molar heat capacity at constant pressure: 163.9 ± 0.7 J/K/mol
206.79 K, Glass
  molar heat capacity at constant pressure: 179.5 ± 0.8 J/K/mol
208.31 K, Crystal 2
  molar heat capacity at constant pressure: 164.9 ± 0.7 J/K/mol
208.66 K, Crystal 2
  molar heat capacity at constant pressure: 165.1 ± 0.7 J/K/mol
208.84 K, Glass
  molar heat capacity at constant pressure: 183.4 ± 0.8 J/K/mol
210 K, Crystal 2
  molar heat capacity at constant pressure: 165.9 ± 0.7 J/K/mol
210 K, Glass
  molar heat capacity at constant pressure: 183.6 ± 0.8 J/K/mol
210.35 K, Crystal 2
  molar heat capacity at constant pressure: 166 ± 0.7 J/K/mol
210.75 K, Crystal 2
  molar heat capacity at constant pressure: 166.3 ± 0.7 J/K/mol
210.87 K, Glass
  molar heat capacity at constant pressure: 189.3 ± 0.8 J/K/mol
212.38 K, Crystal 2
  molar heat capacity at constant pressure: 167.3 ± 0.7 J/K/mol
212.84 K, Crystal 2
  molar heat capacity at constant pressure: 167.5 ± 0.7 J/K/mol
212.85 K, Glass
  molar heat capacity at constant pressure: 201.5 ± 0.9 J/K/mol
214.41 K, Crystal 2
  molar heat capacity at constant pressure: 168.5 ± 0.7 J/K/mol
214.71 K, Liquid
  molar heat capacity at constant pressure: 229.7 ± 1 J/K/mol
214.92 K, Crystal 2
  molar heat capacity at constant pressure: 168.8 ± 0.7 J/K/mol
216.44 K, Crystal 2
  molar heat capacity at constant pressure: 169.7 ± 0.7 J/K/mol
216.52 K, Liquid
  molar heat capacity at constant pressure: 256.1 ± 1.1 J/K/mol
217 K, Crystal 2
  molar heat capacity at constant pressure: 170.1 ± 0.7 J/K/mol
218.48 K, Crystal 2
  molar heat capacity at constant pressure: 170.9 ± 0.7 J/K/mol
218.48 K, Liquid
  molar heat capacity at constant pressure: 258.4 ± 1.1 J/K/mol
219.08 K, Crystal 2
  molar heat capacity at constant pressure: 171.3 ± 0.7 J/K/mol
220 K, Crystal 2
  molar heat capacity at constant pressure: 171.8 ± 0.7 J/K/mol
220 K, Liquid
  molar heat capacity at constant pressure: 258.4 ± 1.1 J/K/mol
220.51 K, Crystal 2
  molar heat capacity at constant pressure: 172.1 ± 0.7 J/K/mol
220.52 K, Liquid
  molar heat capacity at constant pressure: 259.6 ± 1.1 J/K/mol
221.15 K, Crystal 2
  molar heat capacity at constant pressure: 172.5 ± 0.7 J/K/mol
222.55 K, Crystal 2
  molar heat capacity at constant pressure: 173.3 ± 0.7 J/K/mol
223.22 K, Crystal 2
  molar heat capacity at constant pressure: 173.7 ± 0.7 J/K/mol
224.59 K, Crystal 2
  molar heat capacity at constant pressure: 174.5 ± 0.7 J/K/mol
225.29 K, Crystal 2
  molar heat capacity at constant pressure: 175 ± 0.8 J/K/mol
226.63 K, Crystal 2
  molar heat capacity at constant pressure: 175.8 ± 0.8 J/K/mol
227.36 K, Crystal 2
  molar heat capacity at constant pressure: 176.2 ± 0.8 J/K/mol
